Results taken from the supplement of paper PMC11451515.

What was measured:
Settings in all cases: 48 h
NOMO1 [1] = assay: cell viability relative to DMSO control; higher = less cytotoxic
Procedure, shortened: (§1)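 Library compounds in DMSO were pin-dosed into 1536-well plates (5 μl) holding NOMO1 or SEM (500 cells/well) or P12-Ichikawa (1000 cells/well) leukemia cells, across an 11-point threefold series of 47 μM to 0.79 nM. Each cell line had been adapted for at least four passages in each medium. CellTiter-Glo One luminescence was read after 48 h at 37°C. Viability is the per-plate percentage relative to DMSO wells, with cell-free wells as background.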

P12-Ichikawa [2] = assay: as above
Procedure, shortened: as §1

SEM cells [3] = assay: as above
Procedure, shortened: as §1

NOMO1 [4] = assay: AUC of viability dose-response curve (% viability x log10 dose units); higher = less sensitive
Procedure, shortened: (§2)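 Medium-adapted leukemia cells in 1536-well plates, at 500 or 1000 cells/well, were incubated for 48 h at 37°C with library compounds in DMSO at 11 threefold doses from 47 μM to 0.79 nM. CellTiter-Glo One luminescence normalised per plate to DMSO and cell-free wells was fitted with a four-parameter log-logistic model over log10 doses. Area under the curve was integrated from this fit by trapezoidal rule, with curves beyond full viability scaled and failed quality-control curves removed.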

P12-Ichikawa [5] = assay: as above
Procedure, shortened: as §2

SEM cells [6] = assay: as above
Procedure, shortened: as §2

CNC(=O)c1cc(Oc2ccc(NC(=O)Nc3ccc(Cl)c(C(F)(F)F)c3)c(F)c2)ccn1
cell viability [%]
Settings | NOMO1 [1] | P12-Ichikawa [2] | SEM cells [3]
HPLM + 10% dialyzed FBS, 0.000781 µM | 81.7 | 86.4 | 83.2
HPLM + 10% dialyzed FBS, 0.00234 µM | 96.4 | 89.8 | 91.4
HPLM + 10% dialyzed FBS, 0.00702 µM | 112 | 93.8 | 91.1
HPLM + 10% dialyzed FBS, 0.0211 µM | 107 | 91.3 | 78.4
HPLM + 10% dialyzed FBS, 0.0632 µM | 105 | 92 | 84.3
HPLM + 10% dialyzed FBS, 0.19 µM | 104 | 95.4 | 80.6
HPLM + 10% dialyzed FBS, 0.569 µM | 109 | 87.8 | 39.7
HPLM + 10% dialyzed FBS, 1.71 µM | 105 | 91 | 43.7
HPLM + 10% dialyzed FBS, 5.12 µM | 73.6 | 88.3 | 35.3
HPLM + 10% dialyzed FBS, 15.4 µM | 77.1 | 81.4 | 25.9
HPLM + 10% dialyzed FBS, 46.1 µM | 70.6 | 67.7 | 25.1
RPMI 5 mM glucose + 10% FBS, 0.000781 µM | 86.5 | 85.4 | 97
RPMI 5 mM glucose + 10% FBS, 0.00234 µM | 103 | 92.6 | 101
RPMI 5 mM glucose + 10% FBS, 0.00702 µM | 94.8 | 87.8 | 112
RPMI 5 mM glucose + 10% FBS, 0.0211 µM | 108 | 97.8 | 114
RPMI 5 mM glucose + 10% FBS, 0.0632 µM | 97.1 | 86.2 | 73.8
RPMI 5 mM glucose + 10% FBS, 0.19 µM | 94.3 | 95.6 | 89.4
RPMI 5 mM glucose + 10% FBS, 0.569 µM | 95.6 | 94.2 | 44.1
RPMI 5 mM glucose + 10% FBS, 1.71 µM | 86.2 | 83.6 | 44.1
RPMI 5 mM glucose + 10% FBS, 5.12 µM | 85.4 | 87.1 | 31.6
RPMI 5 mM glucose + 10% FBS, 15.4 µM | 83.4 | 86.8 | 27.2
RPMI 5 mM glucose + 10% FBS, 46.1 µM | 69.7 | 65.5 | 21.8
RPMI 5 mM glucose + 10% dialyzed FBS, 0.000781 µM | 88 | 91.7 | 86.9
RPMI 5 mM glucose + 10% dialyzed FBS, 0.00234 µM | 94.8 | 89.9 | 96.7
RPMI 5 mM glucose + 10% dialyzed FBS, 0.00702 µM | 89.8 | 90.5 | 82.1
RPMI 5 mM glucose + 10% dialyzed FBS, 0.0211 µM | 92.4 | 98.6 | 84
RPMI 5 mM glucose + 10% dialyzed FBS, 0.0632 µM | 98.5 | 94.1 | 61.7
RPMI 5 mM glucose + 10% dialyzed FBS, 0.19 µM | 109 | 91.5 | 73.6
RPMI 5 mM glucose + 10% dialyzed FBS, 0.569 µM | 104 | 84.9 | 47.3
RPMI 5 mM glucose + 10% dialyzed FBS, 1.71 µM | 97.9 | 90.3 | 31.7
RPMI 5 mM glucose + 10% dialyzed FBS, 5.12 µM | 80.3 | 84.7 | 26.9
RPMI 5 mM glucose + 10% dialyzed FBS, 15.4 µM | 82.2 | 89.1 | 18.8
RPMI 5 mM glucose + 10% dialyzed FBS, 46.1 µM | 73.6 | 73.5 | 20.3

AUC of viability dose-response curve
Settings | NOMO1 [4] | P12-Ichikawa [5] | SEM cells [6]
HPLM + 10% dialyzed FBS | 444 | 422 | 296
RPMI 5 mM glucose + 10% FBS | 438 | 422 | 314
RPMI 5 mM glucose + 10% dialyzed FBS | 440 | 427 | 275

COc1ccc(CC2SC(=O)NC2=O)cc1C(=O)NCc1ccc(C(F)(F)F)cc1 (centres undefined)
cell viability [%]
Settings | NOMO1 [1] | P12-Ichikawa [2] | SEM cells [3]
HPLM + 10% dialyzed FBS, 0.000781 µM | 84.2 | 85.3 | 75
HPLM + 10% dialyzed FBS, 0.00234 µM | 83.3 | 84.7 | 82.5
HPLM + 10% dialyzed FBS, 0.00702 µM | 90.7 | 90.5 | 79
HPLM + 10% dialyzed FBS, 0.0211 µM | 86.1 | 96 | 82.5
HPLM + 10% dialyzed FBS, 0.0632 µM | 79.4 | 88.3 | 73.6
HPLM + 10% dialyzed FBS, 0.19 µM | 85.5 | 96.3 | 92.5
HPLM + 10% dialyzed FBS, 0.569 µM | 99.3 | 93.8 | 76.9
HPLM + 10% dialyzed FBS, 1.71 µM | 99.2 | 95 | 83.2
HPLM + 10% dialyzed FBS, 5.12 µM | 83 | 88.2 | 95.9
HPLM + 10% dialyzed FBS, 15.4 µM | 82.1 | 83.6 | 79.2
HPLM + 10% dialyzed FBS, 46.1 µM | 86.3 | 86.9 | 40.4
RPMI 5 mM glucose + 10% FBS, 0.000781 µM | 75.9 | 82.1 | 90
RPMI 5 mM glucose + 10% FBS, 0.00234 µM | 88.2 | 78.3 | 86.8
RPMI 5 mM glucose + 10% FBS, 0.00702 µM | 94 | 81 | 101
RPMI 5 mM glucose + 10% FBS, 0.0211 µM | 88 | 87 | 84.1
RPMI 5 mM glucose + 10% FBS, 0.0632 µM | 81.7 | 78.9 | 79.8
RPMI 5 mM glucose + 10% FBS, 0.19 µM | 84.1 | 83.7 | 109
RPMI 5 mM glucose + 10% FBS, 0.569 µM | 90.1 | 94.5 | 96.5
RPMI 5 mM glucose + 10% FBS, 1.71 µM | 92 | 89.2 | 106
RPMI 5 mM glucose + 10% FBS, 5.12 µM | 81.4 | 86.4 | 101
RPMI 5 mM glucose + 10% FBS, 15.4 µM | 85.3 | 77.2 | 89.9
RPMI 5 mM glucose + 10% FBS, 46.1 µM | 92 | 66.7 | 45.2
RPMI 5 mM glucose + 10% dialyzed FBS, 0.000781 µM | 89.1 | 79.5 | 88
RPMI 5 mM glucose + 10% dialyzed FBS, 0.00234 µM | 89.1 | 82.5 | 88.8
RPMI 5 mM glucose + 10% dialyzed FBS, 0.00702 µM | 86.9 | 81.7 | 88.4
RPMI 5 mM glucose + 10% dialyzed FBS, 0.0211 µM | 96 | 71.5 | 87.6
RPMI 5 mM glucose + 10% dialyzed FBS, 0.0632 µM | 89 | 74.3 | 77.6
RPMI 5 mM glucose + 10% dialyzed FBS, 0.19 µM | 93.4 | 74.2 | 98.8
RPMI 5 mM glucose + 10% dialyzed FBS, 0.569 µM | 96.7 | 80.2 | 93.8
RPMI 5 mM glucose + 10% dialyzed FBS, 1.71 µM | 86.3 | 75.1 | 97.4
RPMI 5 mM glucose + 10% dialyzed FBS, 5.12 µM | 85.9 | 74.9 | 38.6
RPMI 5 mM glucose + 10% dialyzed FBS, 15.4 µM | 79.3 | 69.3 | 83.6
RPMI 5 mM glucose + 10% dialyzed FBS, 46.1 µM | 90.8 | 63.6 | 56.1

AUC of viability dose-response curve
Settings | NOMO1 [4] | P12-Ichikawa [5] | SEM cells [6]
HPLM + 10% dialyzed FBS | 416 | 430 | 381
RPMI 5 mM glucose + 10% FBS | 415 | 396 | 439
RPMI 5 mM glucose + 10% dialyzed FBS | 427 | 361 | 393

CCOC\1=C(/C(=O)NC2=CC=C(OC3=C(Cl)C(=NC=C3)N)C(=C2)F)C(=O)N(\C=C1)C4=CC=C(F)C=C4
cell viability [%]
Settings | NOMO1 [1] | P12-Ichikawa [2] | SEM cells [3]
HPLM + 10% dialyzed FBS, 0.000781 µM | 86.9 | 107 | 95.5
HPLM + 10% dialyzed FBS, 0.00234 µM | 96.1 | 110 | 97.7
HPLM + 10% dialyzed FBS, 0.00702 µM | 99.3 | 102 | 98.4
HPLM + 10% dialyzed FBS, 0.0211 µM | 96.1 | 115 | 94.7
HPLM + 10% dialyzed FBS, 0.0632 µM | 102 | 104 | 91.1
HPLM + 10% dialyzed FBS, 0.19 µM | 106 | 101 | 76.8
HPLM + 10% dialyzed FBS, 0.569 µM | 91.6 | 94.7 | 63.3
HPLM + 10% dialyzed FBS, 1.71 µM | 75.6 | 91.3 | 50.6
HPLM + 10% dialyzed FBS, 5.12 µM | 75.1 | 93.8 | 32.8
HPLM + 10% dialyzed FBS, 15.4 µM | 70.9 | 81.2 | 28.9
HPLM + 10% dialyzed FBS, 46.1 µM | 39.1 | 27.4 | 15
RPMI 5 mM glucose + 10% FBS, 0.000781 µM | 99.8 | 99.2 | 122
RPMI 5 mM glucose + 10% FBS, 0.00234 µM | 102 | 104 | 118
RPMI 5 mM glucose + 10% FBS, 0.00702 µM | 104 | 111 | 105
RPMI 5 mM glucose + 10% FBS, 0.0211 µM | 90.4 | 98.5 | 95.9
RPMI 5 mM glucose + 10% FBS, 0.0632 µM | 100 | 102 | 98.4
RPMI 5 mM glucose + 10% FBS, 0.19 µM | 96.6 | 102 | 91.1
RPMI 5 mM glucose + 10% FBS, 0.569 µM | 93.5 | 96.1 | 75.5
RPMI 5 mM glucose + 10% FBS, 1.71 µM | 88.7 | 95.2 | 53.3
RPMI 5 mM glucose + 10% FBS, 5.12 µM | 90 | 97.7 | 39.7
RPMI 5 mM glucose + 10% FBS, 15.4 µM | 92 | 80.1 | 27.5
RPMI 5 mM glucose + 10% FBS, 46.1 µM | 51.9 | 30.9 | 6.35
RPMI 5 mM glucose + 10% dialyzed FBS, 0.000781 µM | 111 | 106 | 92.1
RPMI 5 mM glucose + 10% dialyzed FBS, 0.00234 µM | 96.1 | 101 | 83.9
RPMI 5 mM glucose + 10% dialyzed FBS, 0.00702 µM | 92.2 | 104 | 96
RPMI 5 mM glucose + 10% dialyzed FBS, 0.0211 µM | 94.7 | 104 | 90.1
RPMI 5 mM glucose + 10% dialyzed FBS, 0.0632 µM | 95.3 | 102 | 82.4
RPMI 5 mM glucose + 10% dialyzed FBS, 0.19 µM | 96.8 | 91 | 76.4
RPMI 5 mM glucose + 10% dialyzed FBS, 0.569 µM | 89.1 | 99.7 | 57
RPMI 5 mM glucose + 10% dialyzed FBS, 1.71 µM | 95.8 | 81.9 | 40
RPMI 5 mM glucose + 10% dialyzed FBS, 5.12 µM | 100 | 91.8 | 33.9
RPMI 5 mM glucose + 10% dialyzed FBS, 15.4 µM | 74.7 | 68.5 | 22.9
RPMI 5 mM glucose + 10% dialyzed FBS, 46.1 µM | 52.7 | 28.1 | 6.07

AUC of viability dose-response curve
Settings | NOMO1 [4] | P12-Ichikawa [5] | SEM cells [6]
HPLM + 10% dialyzed FBS | 415 | 444 | 328
RPMI 5 mM glucose + 10% FBS | 446 | 447 | 309
RPMI 5 mM glucose + 10% dialyzed FBS | 440 | 431 | 300
